Experimental data taken from patent EP1022029A1, “NOOTROPIC AGENT” (priority 1997, dated 1999).
Read-outs that look alike come from different tables or passages of the source.

What was measured:
Format in all cases: cell-based
α7 receptor = biological target: T1, α7 receptor (Rattus norvegicus, UniProt Q05941); assay: ACh-evoked currents in α7 receptors expressed in Xenopus oocytes (two-electrode voltage clamp); conditions: for normalized response (%): nef(+), n=5
T1 construct: expressed in transfected cells; host or cells: Xenopus oocytes injected with in vitro transcribed mRNA
T1 sequence (Q05941 23-502): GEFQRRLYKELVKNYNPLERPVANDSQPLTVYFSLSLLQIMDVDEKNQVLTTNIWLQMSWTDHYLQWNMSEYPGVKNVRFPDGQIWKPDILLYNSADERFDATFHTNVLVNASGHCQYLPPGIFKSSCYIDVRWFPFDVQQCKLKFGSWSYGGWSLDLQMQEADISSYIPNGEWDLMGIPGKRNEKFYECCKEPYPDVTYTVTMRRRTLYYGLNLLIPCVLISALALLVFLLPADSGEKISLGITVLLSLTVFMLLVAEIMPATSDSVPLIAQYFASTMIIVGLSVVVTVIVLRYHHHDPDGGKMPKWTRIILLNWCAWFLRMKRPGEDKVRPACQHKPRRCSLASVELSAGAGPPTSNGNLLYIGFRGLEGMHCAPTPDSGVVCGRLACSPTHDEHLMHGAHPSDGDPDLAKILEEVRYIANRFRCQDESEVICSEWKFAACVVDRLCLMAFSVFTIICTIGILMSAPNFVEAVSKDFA
Method: Two-electrode voltage-clamp technique was used to record expression α4β2 or α7 receptors in oocytes. […] The holding voltage was -30 or -60 mV for α4β2-nAChR or α7-nAChR, respectively. Downward directions correspond to inward currents.
mRNAs for the rat α4β2 receptor and α7 receptor, GLUR1, 2, 3 receptors, and NP152 and NP153 were constructed as described previously. Xenopus oocytes were manually separated from the ovary, and subjected to treatment with collagenase (0.5 mg/ml). Thereafter, the treated oocytes were incubated overnight in Barth's solution (in mM, 88 NaCl, 1 KCl, 2.4 NaHCO3, 0.82 MgSO4, 0.33 […], 0.41 CaCl2, and 7.5 Tris; pH 7.6). The oocytes were injected with the α4β2 or α7 receptor mRNA and incubated at 18°C. In some cases, NP152 and NP153 were co-expressed with the α4β2 and α7 receptors. The injected oocytes were incubated and transferred to a recording chamber 2-7 days after incubation and continuously superfused at room temperature (20-22°C) with a standard frog Ringer's solution [in mM: 115 NaCl, 2 KCl, 1.8 CaCl2, 5 HEPES; pH 7.0]. To remove the effect of endogenous muscarinic ACh receptor, 1 µM atropine was added to the extracellular solution. ACh-evoked currents were recorded by use of two-electrode voltage clamp techniques and an amplifier (GeneClamp-500, Axon Instrument, Inc. USA). The currents were analyzed on a microcomputer by pClamp software (Axon Instrument, Inc.; Version 6). From the results, an assessment was made as to whether nefiracetam actually acts on the nACh receptors.

[1] = biological target: T2, nACh receptors (α, β, γ, δ) of Torpedo (Tetronarce californica, UniProt P02710+P02712+P02714+P02718); assay: ACh-evoked currents in normal nACh receptors expressed in Xenopus oocytes (two-electrode voltage clamp)
T2 construct: expressed in transfected cells; host or cells: Xenopus oocytes
T2 sequence (P02718 22-522): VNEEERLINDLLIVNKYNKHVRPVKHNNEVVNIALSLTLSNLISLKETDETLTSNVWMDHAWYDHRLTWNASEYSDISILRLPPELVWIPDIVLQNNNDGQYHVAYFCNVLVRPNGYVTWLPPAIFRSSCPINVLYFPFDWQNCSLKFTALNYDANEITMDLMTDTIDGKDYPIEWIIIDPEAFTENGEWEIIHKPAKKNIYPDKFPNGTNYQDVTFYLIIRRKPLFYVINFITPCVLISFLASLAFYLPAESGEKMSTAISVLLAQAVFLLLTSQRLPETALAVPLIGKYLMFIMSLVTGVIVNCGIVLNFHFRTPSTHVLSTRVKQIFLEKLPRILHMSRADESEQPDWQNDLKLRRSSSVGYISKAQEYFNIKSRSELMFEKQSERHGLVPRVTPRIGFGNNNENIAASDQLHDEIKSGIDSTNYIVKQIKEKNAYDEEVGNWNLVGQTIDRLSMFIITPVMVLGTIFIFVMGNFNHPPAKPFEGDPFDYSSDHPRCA
T2 sequence (P02712 25-493): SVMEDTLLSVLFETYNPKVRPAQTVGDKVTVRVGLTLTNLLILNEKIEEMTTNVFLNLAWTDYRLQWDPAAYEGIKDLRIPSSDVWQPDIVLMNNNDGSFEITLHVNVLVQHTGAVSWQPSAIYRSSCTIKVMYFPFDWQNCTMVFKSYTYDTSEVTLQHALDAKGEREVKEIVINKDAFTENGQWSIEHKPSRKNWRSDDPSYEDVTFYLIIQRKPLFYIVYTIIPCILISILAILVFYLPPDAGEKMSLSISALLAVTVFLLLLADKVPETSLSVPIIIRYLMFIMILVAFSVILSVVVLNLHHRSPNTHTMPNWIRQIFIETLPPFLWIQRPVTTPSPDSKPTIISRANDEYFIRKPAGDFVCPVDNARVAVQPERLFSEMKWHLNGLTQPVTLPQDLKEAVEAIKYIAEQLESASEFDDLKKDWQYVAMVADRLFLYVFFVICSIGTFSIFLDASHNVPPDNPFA
T2 sequence (P02710 25-461): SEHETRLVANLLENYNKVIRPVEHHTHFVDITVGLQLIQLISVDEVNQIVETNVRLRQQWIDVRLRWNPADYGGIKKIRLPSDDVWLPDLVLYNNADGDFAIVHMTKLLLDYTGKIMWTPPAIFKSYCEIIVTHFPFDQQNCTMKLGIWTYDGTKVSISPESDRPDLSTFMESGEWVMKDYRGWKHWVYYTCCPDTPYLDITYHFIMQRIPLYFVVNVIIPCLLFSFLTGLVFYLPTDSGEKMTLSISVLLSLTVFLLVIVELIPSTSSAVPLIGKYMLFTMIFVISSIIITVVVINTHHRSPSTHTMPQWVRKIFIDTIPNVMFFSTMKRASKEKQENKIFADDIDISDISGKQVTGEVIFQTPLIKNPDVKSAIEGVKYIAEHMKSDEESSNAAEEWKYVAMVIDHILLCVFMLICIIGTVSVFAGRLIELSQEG
T2 sequence (P02714 18-506): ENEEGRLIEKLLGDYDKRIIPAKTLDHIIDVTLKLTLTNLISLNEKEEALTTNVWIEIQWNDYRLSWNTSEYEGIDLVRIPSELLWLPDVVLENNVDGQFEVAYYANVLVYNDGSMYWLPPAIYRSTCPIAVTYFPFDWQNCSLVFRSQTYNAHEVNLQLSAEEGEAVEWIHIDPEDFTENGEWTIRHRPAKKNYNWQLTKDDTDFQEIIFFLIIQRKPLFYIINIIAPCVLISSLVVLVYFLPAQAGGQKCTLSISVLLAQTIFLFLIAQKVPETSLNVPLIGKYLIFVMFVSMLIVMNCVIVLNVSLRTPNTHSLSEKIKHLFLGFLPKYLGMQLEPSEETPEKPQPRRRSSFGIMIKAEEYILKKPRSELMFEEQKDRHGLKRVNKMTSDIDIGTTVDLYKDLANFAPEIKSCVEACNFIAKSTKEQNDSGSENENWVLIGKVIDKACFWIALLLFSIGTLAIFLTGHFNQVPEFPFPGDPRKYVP
Method: Cell membrane currents were recorded by use of two-electrode voltage clamp techniques (T. Nishizaki et al., Ikeuchi, Brain Res. 687, 214, 1995). ACh (100 µM) was administered to a single oocyte expressing normal ACh receptors at 10-min intervals before and after 10-min treatment of the oocyte with nefiracetam. The holding voltage was -30 mV. In accordance with a conventional method, wild-type acetylcholine (nACh) receptors were expressed in Xenopus oocytes (K. Sumikawa et al., Mol. Brain Res. 5, 183, 1989), and by the application of ACh (100 µM), inward membrane currents were evoked (Table 13). Currents were recorded at 10-min intervals. During the recording period, spontaneous attenuation of the currents was within 5% (data not shown). […] After the drug was washed out, the amplitude gradually recovered (Table 13). The reductions in current were 70% (n=7) with 0.01 µM and 62% with 0.1 µM nefiracetam.
(§1) ACh (100 µM) was applied to each of an oocyte expressing normal ACh receptors and an oocyte expressing mutant ACh receptors (mγΔPKA/Ser353, 354m δΔPKA/Ser361,362) lacking PKA phosphorylation sites, before and after treatment with nefiracetam (0.01 µM). The oocytes expressing normal ACh receptors were treated with H-89 (1 µM) from 15 min before recording, or with pertussis toxin (0.1 µg/ml) for 24h prior to experiments. The currents illustrated in Table 16 were recorded before and 30 min after treatment with nefiracetam. The holding voltage was - 30 mV. In Table 16, each point represents the average obtained from seven oocytes.
ACh (100 µM) was applied to each of an oocyte expressing normal ACh receptors and an oocyte expressing mutant ACh receptors (mγΔPKA/Ser353,354m δΔPKA/Ser361,362) lacking PKA phosphorylation sites, in the presence and absence of GF109203X (100 nM) or in calcium-free extracellular solution.

[2] = system: mutant ACh receptors (mγΔPKA/Ser353,354m δΔPKA/Ser361,362) lacking PKA phosphorylation sites; assay: ACh-evoked currents in mutant ACh receptors lacking PKA phosphorylation sites expressed in Xenopus oocytes; conditions: nefiracetam 0.01 µM; 30 min after treatment; n=7
Method: as §1
To further examine whether the current depression by nefiracetam is due to PKA phosphorylation of the receptors or not, mutant ACh receptors lacking potent PKA phosphorylation sites on the γ and δ subunits (mγΔ PKA/Ser353,354m δΔPKA/Ser361,362) were expressed in Xenopus oocytes.

Cc1cccc(C)c1NC(=O)CN1CCCC1=O [nefiracetam, 2-oxo-1-pyrrolidinylacetic acid 2,6-dimethylanilide]
concentration of maximum potentiation of ACh-evoked currents (α7 receptor): 1 µM | activity at 1 µM (α7 receptor; 1 h, nefiracetam 1 µM, 60 minutes after treatment, read-out: ACh-evoked currents potentiated, reaching): 195% | normalized response (%) (α7 receptor; ACh 0.1 µM, nefiracetam 1 µM): 0% | normalized response (%) (α7 receptor; ACh 1 µM, nefiracetam 1 µM): 1.5% | normalized response (%) (α7 receptor; ACh 10 µM, nefiracetam 1 µM): 3% | normalized response (%) (α7 receptor; ACh 100 µM, nefiracetam 1 µM): 35% | normalized response (%) (α7 receptor; ACh 1000 µM, nefiracetam 1 µM): 100% | activity at 0.01 µM (α7 receptor; Nefiracetam 0.01 µM, n = 5 to 8, read-out: % of the original amplitude): 97.4 ± 5.5% | activity at 0.1 µM (α7 receptor; Nefiracetam 0.1 µM, n = 5 to 8, read-out: % of the original amplitude): 181 ± 10.8% | activity at 1 µM (α7 receptor; Nefiracetam 1 µM, n = 5 to 8, read-out: % of the original amplitude): 195 ± 8.8% | activity at 10 µM (α7 receptor; Nefiracetam 10 µM, n = 5 to 8, read-out: % of the original amplitude): 116 ± 7.2% | currents potentiated to (α7 receptor; in the presence of the inactive PKC inhibitory peptide (NP153; iPKCI)): 193.6% | concentration at which potentiation of ACh-evoked currents was observed (α7 receptor; lowest effective concentration): ≥ 0.01 µM | inhibition at 0.01 µM ([1]; 0.01 µM nefiracetam for 10 min, n=7, read-out: reduction in ACh-evoked current): 70% | inhibition at 0.1 µM ([1]; 0.1 µM nefiracetam for 10 min, read-out: reduction in ACh-evoked current): 62% | activity at 1 µM ([1]; 1.5 h, 1 µM, 10-min treatment, 90 min after washing-out, n=7, read-out: ACh-evoked currents enhanced, reaching): 243% | activity at 10 µM ([1]; 1.5 h, 10 µM, 10-min treatment, 90 min after washing-out, n=7, read-out: ACh-evoked currents enhanced, reaching): 255% | ACh-evoked currents reduced to ([1]; nefiracetam in the presence of GF109203X, 30 minutes after administration, n=7): 60% | ACh-evoked currents increased to [2]: 159%
